Laboratory results from patent US20060025566A1, “Macrocyclic modulators of the ghrelin receptor” (Tranzyme Pharma Inc., priority 2003, published 2006).
Like-named read-outs stand apart in the source and are kept apart here.

Columns and labels:
[1] = system: gastric emptying in fasted rats; test: Gastric emptying in fasted rats (phenol red methylcellulose meal); assay type: in vivo, rat
Protocol: To examine the effects of compounds of the invention in a model for gastroparesis, compounds were evaluated for possible effects on gastric emptying in fasted rats.
GHRP-6 and test samples were dissolved in vehicle of 9% HPBCD/0.9% NaCl. Immediately following oral administration of methylcellulose (2%) containing phenol red (0.05%) (2 mL/rat), test substances or vehicle (9% HPBCD/0.9% NaCl) were each administered intravenously (i.v.) at a dosing volume of 5 mL/kg.
Male Wistar rats were provided by LASCO (A Charles River Licensee Corporation, Taiwan). Space allocation for 6 animals was 45×23×15 cm. Animals were housed in APEC® cages and maintained in a controlled temperature (22° C.-24° C.) and humidity (60%-80%) environment with 12 h light, 12 h dark cycles for at least one week in the laboratory prior to being used. Free access to standard lab chow for rats (Lab Diet, Rodent Diet, PMI Nutrition International, USA) and tap water was granted. All aspects of this work including housing, experimentation and disposal of animals were performed in general accordance with the Guide for the Care and Use of Laboratory Animals (National Academy Press, Washington, D.C., 1996).
Test substances were each administered intravenously to a group of 5 O/N-fasted Wistar derived male rats weighing 200±20 g immediately after methylcellulose (2%) containing phenol red (0.05%) was administered orally at 2 mL/animal. […] Following protein precipitation by 20% trichloroacetic acid (0.5 mL) and re-alkalization of the supernatant with 0.1 N NaOH, total phenol red remaining in the stomach was determined by a colorimetric method at 560 nm. A 30 percent or more (≧30%) increase in gastric emptying, detected as the decrease in phenol red concentration in the stomach relative to the vehicle control group, is considered significant.
• 1. […] Total phenol red remaining in the stomach was quantified by a colorimetric method at 560 nm. • 5. A >30% increase in gastric emptying, detected based on the phenol red concentration in comparison to the control group, is considered significant. […]

morphine-treated rats = test: Model of opioid-delayed gastric emptying and gastrointestinal transit (morphine) in rats; assay type: in vivo, rat; conditions: 3 mg/kg s.c., FIG. 16A
Text: 7. The Effect of Compounds of the Invention on Gastric Emptying and Gastrointestinal Transit in a Model of Opioid-Delayed Gastric Emptying
Opioid analgesics, such as morphine, are well known to delay gastrointestinal transit which is an important side-effect for this class of drugs. The clinical term for this syndrome is opioid bowel dysfunction (OBD). Importantly, patients recovering from abdominal surgery experience post-operative ileus that is further exacerbated by concomitant opioid therapy for post-surgical pain.
• 1. […] Methods • 1. Rats (male, Sprague-Dawley, 250-300 g) are implanted with jugular vein catheters to accommodate dosing of test articles. • 2. Overnight-fasted rats are administered morphine (3 mg/kg s.c.). • 3. […] Radioactivity (^99mTc) in each tissue isolate is measured as a means of measuring the transit of the meal. Results

motilin receptor = motilin receptor (Homo sapiens, UniProt O43193); test: Selectivity for the ghrelin receptor versus the motilin receptor; assay type: binding
Text: The level of agonist activity and selectivity for representative compounds of the invention are shown below in Table 4.

[2] = target: T1, human growth hormone secretagogue receptor (hGHS-R1a) (Homo sapiens, UniProt Q92847); test: Competitive radioligand binding assay (ghrelin receptor), [125I]-ghrelin displacement on GHS-R/HEK 293 membranes; conditions: read-out: Ki
T1 construct: purchased PerkinElmer BioSignal #RBHGHSM, lot#1887; host or cells: HEK-293, stably transfected (membranes)

[3] = target: human ghrelin receptor (hGHS-R1a) (Homo sapiens, UniProt Q92847); test: Aequorin functional assay (ghrelin receptor), CHO-K1 cells co-expressing Gα16 and aequorin; assay type: cell-based; conditions: functional (agonist) activity, standard method; TFA salts unless otherwise noted
Text: Coelenterazine (Molecular Probes, Leiden, The Netherlands). […] Compound Handling
• 1. […] Key Aspects of Method • 1. […] Results

[4] = Pharmacokinetic analysis in rats (i.v., s.c., p.o.); assay type: in vivo; conditions: rat, typical dose 2 mg/kg
Protocol: D. Pharmacokinetic Analysis of Representative Compounds of the Invention
Typical Dose • 1. Intravenous (i.v.): 2 mg/kg • 2. Subcutaneous (s.c): 2 mg/kg
Plasma Collection • 1. Same protocol for all dosing groups • 2.
Whole blood samples were chilled and immediately processed by centrifugation to obtain plasma.
Plasma samples were stored frozen (−70° C.) until analysis.

[5] = binding activity at the human ghrelin receptor, [125I]-ghrelin competition, GHS-R/HEK 293 membranes
[6] = binding activity, standard method, TFA salts unless otherwise noted

Sequence of human ghrelin receptor (hGHS-R1a) (Q92847 whole entry): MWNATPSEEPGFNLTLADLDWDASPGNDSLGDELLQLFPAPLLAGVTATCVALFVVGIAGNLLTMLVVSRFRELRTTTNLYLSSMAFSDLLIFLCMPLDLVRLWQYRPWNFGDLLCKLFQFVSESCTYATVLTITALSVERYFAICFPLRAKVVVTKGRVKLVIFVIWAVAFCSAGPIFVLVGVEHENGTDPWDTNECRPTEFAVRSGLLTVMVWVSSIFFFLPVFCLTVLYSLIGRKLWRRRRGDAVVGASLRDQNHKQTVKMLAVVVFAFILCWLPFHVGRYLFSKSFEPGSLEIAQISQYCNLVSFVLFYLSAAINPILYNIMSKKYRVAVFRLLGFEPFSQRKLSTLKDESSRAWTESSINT
T1 sequence (Q92847 whole entry): as above
Sequence of motilin receptor (O43193 whole entry): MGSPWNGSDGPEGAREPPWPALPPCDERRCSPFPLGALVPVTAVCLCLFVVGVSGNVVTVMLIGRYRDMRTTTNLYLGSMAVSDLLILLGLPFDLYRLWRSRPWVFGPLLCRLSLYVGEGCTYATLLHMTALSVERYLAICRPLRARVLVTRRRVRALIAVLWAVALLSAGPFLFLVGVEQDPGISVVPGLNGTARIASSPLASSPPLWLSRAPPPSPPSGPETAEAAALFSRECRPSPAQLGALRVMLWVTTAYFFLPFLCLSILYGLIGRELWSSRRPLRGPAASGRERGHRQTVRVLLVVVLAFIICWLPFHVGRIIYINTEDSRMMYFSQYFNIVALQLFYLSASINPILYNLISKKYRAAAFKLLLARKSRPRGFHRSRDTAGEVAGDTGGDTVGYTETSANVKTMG

CCN(CC)CCNC(=O)c1cc(Cl)c(N)cc1OC [Metoclopramide, reference compound]
gastric emptying of a solid meal in naïve rat ([1]; i.v. immediately after meal, FIG. 14): significant gastric emptying

CN1CC[C@]23c4c5ccc(O)c4O[C@H]2[C@@H](O)C=C[C@H]3[C@H]1C5 [Morphine, morphine]
gastric emptying and intestinal transit (morphine-treated rats): significantly delayed gastric emptying and intestinal transit

C[C@@H]1C(=O)N[C@H](Cc2ccccc2)C(=O)NCCCc2ccccc2OCCN[C@@H](C2CC2)C(=O)N1C [compound 17]
Selectivity (motilin receptor): 2500/1 | Ki [2, 5]: 0.1 to 10 nM | Ki [2, 6]: 0.1 to 10 nM | EC50 [3]: 1 to 100 nM

CC(C)CC1NCCOc2ccccc2C=CCNC(=O)C(Cc2cccc(Cl)c2)NC(=O)C2(CCCC2)NC1=O (stereo not shown) [compound 21]
Selectivity (motilin receptor): 1078/1 | Ki [2, 5]: 0.1 to 10 nM | Ki [2, 6]: 0.1 to 10 nM | EC50 [3]: 1 to 100 nM

CCC(C)C1NCCOc2ccccc2CCCNC(=O)C(Cc2ccc(Cl)cc2)NC(=O)C(C)N(C)C1=O (stereo not shown) [compound 25]
Clearance [4]: 67 mL/min/kg | Elimination (t1/2, min) [4]: 31 min | gastric emptying ([1]; fasted rats, 30 μg/kg): demonstrated gastric emptying | increase in gastric emptying relative to the vehicle control group ([1]; fasted rats, 100 μg/kg i.v.): 39% | Ki [2, 5]: 0.1 to 10 nM

CC[C@H](C)[C@@H]1NCCOc2ccccc2CCCNC(=O)[C@@H](Cc2ccc(F)cc2)NC(=O)[C@@H](C)N(C)C1=O [compound 26]
Selectivity (motilin receptor): >7700/1 | Ki [2, 5]: 0.1 to 10 nM | Ki [2, 6]: 0.1 to 10 nM | EC50 [3]: 1 to 100 nM

CCC(C)C1NCCOc2ccccc2CCCNC(=O)C(Cc2ccc(OC)cc2)NC(=O)C(C)N(C)C1=O (stereo not shown) [compound 27]
Selectivity (motilin receptor): >7100/1 | Ki [2, 5]: 0.1 to 10 nM | Ki [2, 6]: 0.1 to 10 nM | EC50 [3]: 1 to 100 nM

CC[C@H](C)[C@@H]1NCCOc2ccccc2CCCNC(=O)[C@@H](Cc2ccc3ccccc3c2)NC(=O)[C@@H](C)N(C)C1=O [compound 31]
Selectivity (motilin receptor): 4900/1 | Ki [2, 5]: 0.1 to 10 nM | Ki [2, 6]: 0.1 to 10 nM | EC50 [3]: 1 to 100 nM

CC1C(=O)NC(Cc2ccc(Cl)cc2Cl)C(=O)NCCCc2ccccc2OCCNC(C2CC2)C(=O)N1C (stereo not shown) [compound 314]
Selectivity (motilin receptor): >5500/1 | Ki ([2]; binding activity at the human ghrelin receptor, [125I]-ghrelin displacement): 0.1 to 10 nM | Ki [2, 6]: 0.1 to 10 nM | EC50 [3]: 1 to 100 nM
